From the supplement of paper PMC11061612

Experiments:
Experiment in all cases: Bliss excess, mean over the matrix (fraction); higher = more synergy
[1] = test system: TE-4 (Esophageal Squamous Cell Carcinoma)
Procedure, shortened: (§1)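 After 24 hours at 37°C and 5% CO2 in 1536-well plates, cells in DMEM/F12 or RPMI plus 10% FBS received two-drug dose matrices for 72 hours. Viability came from CellTiter-Glo 2.0 luminescence and was scaled as inhibition, anchored at 0 by vehicle wells and at 1 by blank wells. Combination Emax is taken as the second-highest inhibition in the matrix, and Bliss excess as the observed combination effect less EA + EB − EA·EB, with EA and EB the single-agent effects.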

[2] = test system: SUP-T1 (T-Lymphoblastic Leukemia)
Procedure, shortened: as §1

[3] = test system: SW626 (Colorectal Carcinoma)
Procedure, shortened: as §1

[4] = test system: KYSE-410 (Esophageal Squamous Cell Carcinoma)
Procedure, shortened: as §1

[5] = test system: CAL-54 (Kidney Carcinoma)
Procedure, shortened: as §1

[6] = test system: NCI-H69 (Small Cell Lung Carcinoma)
Procedure, shortened: as §1

[7] = test system: HDLM-2 (Hodgkin's Lymphoma)
Procedure, shortened: as §1

NB14 (Neuroblastoma) = test system: NB14 (Neuroblastoma)
Procedure, shortened: as §1

[8] = test system: MHH-PREB-1 (B-Cell Non-Hodgkin's Lymphoma)
Procedure, shortened: as §1

Mewo (Melanoma) = test system: Mewo (Melanoma)
Procedure, shortened: as §1

[9] = test system: LU-139 (Small Cell Lung Carcinoma)
Procedure, shortened: as §1

[10] = test system: MDA-MB-468 (Breast Carcinoma)
Procedure, shortened: as §1

[11] = test system: LoVo (Colorectal Carcinoma)
Procedure, shortened: as §1

[12] = test system: KARPAS-231 (B-Cell Non-Hodgkin's Lymphoma)
Procedure, shortened: as §1

COLO-829 (Melanoma) = test system: COLO-829 (Melanoma)
Procedure, shortened: as §1

NCI-H28 (Mesothelioma) = test system: NCI-H28 (Mesothelioma)
Procedure, shortened: as §1

[13] = test system: OVCAR-8 (Ovarian Carcinoma)
Procedure, shortened: as §1

[14] = test system: HARA (Squamous Cell Lung Carcinoma)
Procedure, shortened: as §1

[15] = test system: SK-OV-3 (Ovarian Carcinoma)
Procedure, shortened: as §1

[16] = test system: NCI-H747 (Colorectal Carcinoma)
Procedure, shortened: as §1

| SMILES | Bliss excess [1] | Bliss excess [2] | Bliss excess [3] | Bliss excess [4] | Bliss excess [5] | Bliss excess [6] | Bliss excess [7] | Bliss excess (NB14 (Neuroblastoma)) | Bliss excess [8] | Bliss excess (Mewo (Melanoma)) | Bliss excess [9] | Bliss excess [10] | Bliss excess [11] | Bliss excess [12] | Bliss excess (COLO-829 (Melanoma)) | Bliss excess (NCI-H28 (Mesothelioma)) | Bliss excess [13] | Bliss excess [14] | Bliss excess [15] | Bliss excess [16] |
| --- | --- | --- | --- | --- | --- | --- | --- | --- | --- | --- | --- | --- | --- | --- | --- | --- | --- | --- | --- | --- |
| CC1(C)CCC(CN2CCN(c3ccc(C(=O)NS(=O)(=O)c4ccc(NCC5CCOCC5)c([N+](=O)[O-])c4)c(Oc4cnc5[nH]ccc5c4)c3)CC2)=C(c2ccc(Cl)cc2)C1 [Venetoclax] + C1CN(CCC1(C(=O)N[C@@H](CCO)C2=CC=C(C=C2)Cl)N)C3=NC=NC4=C3C=CN4 [Capivasertib] (first compound max 1 µM, 7x7, partner max 3 µM) | -0.0421 | -0.0641 | -0.018 | -0.0427 | -0.027 | 0.0185 | -0.0166 | -0.0461 | -0.0398 | -0.0093 | -0.0467 | -0.0435 | -0.0419 | -0.182 | -0.045 | -0.0848 | -0.0504 | -0.009 | -0.0577 | -0.0537 |
| NC1(C(=O)N[C@@H](CCO)c2ccc(Cl)cc2)CCN(c2ncnc3[nH]ccc23)CC1 [Capivasertib] + CC(=O)c1c(C)c2cnc(Nc3ccc(N4CCNCC4)cn3)nc2n(C2CCCC2)c1=O [Palbociclib] (first compound max 10 µM, 7x7, partner max 10 µM) | 0.0094 | -0.0239 | 0.014 | 0.0199 | -0.0279 | -0.0632 | -0.0222 | 0.0419 | -0.0158 | -0.0588 | -0.0256 | -0.0075 | -0.03 | -0.044 | -0.0549 | -0.0343 | -0.0017 | 0.0388 | -0.0463 | -0.0032 |
| Cc1c2c(nn1C)CSCc1cc(n(C)n1)CSc1cc(c3ccccc3c1)OCCCc1c(C(=O)O)n(C)c3c-2c(Cl)ccc13 [AZD5991] + CC1(C)CCC(CN2CCN(c3ccc(C(=O)NS(=O)(=O)c4ccc(NCC5CCOCC5)c([N+](=O)[O-])c4)c(Oc4cnc5[nH]ccc5c4)c3)CC2)=C(c2ccc(Cl)cc2)C1 [Venetoclax] (first compound max 1 µM, 7x7, partner max 1 µM) | 0.0017 | -0.0207 | -0.0064 | -0.0393 | -0.0151 | -0.0383 | 0.162 | 0.255 | -0.0301 | 0.0377 | 0.0307 | 0.0812 | -0.0217 | -0.0232 | -0.0122 | -0.0812 | -0.0157 | -0.0091 | -0.0153 | -0.0438 |
| COc1cccc(OCCCN)c1-c1cc(Nc2cnc(C#N)cn2)n[nH]1 [Prexasertib] + C=CCn1c(=O)c2cnc(Nc3ccc(N4CCN(C)CC4)cc3)nc2n1-c1cccc(C(C)(C)O)n1 [AZD1775] (first compound max 1 µM, partner max 1 µM) | 0.0905 | -0.0504 | 0.0304 | 0.0066 | -0.024 | 0.151 | -0.0404 | 0.0486 | 0.0729 | 0.0641 | 0.0089 | 0.0399 | 0.0269 | 0.0482 | -0.0067 | -0.0145 | 0.0937 | 0.075 | 0.0324 | 0.0623 |
| NC1(C(=O)N[C@@H](CCO)c2ccc(Cl)cc2)CCN(c2ncnc3[nH]ccc23)CC1 [Capivasertib] + COc1nnc2ccc(N3CCC(c4ccc(OCCN5CCN(C)C(=O)[C@H]5C)cc4)CC3)nn12 [AZD5153] (first compound max 10 µM, 7x7, partner max 1 µM) | 0.0684 | -0.0296 | -0.0156 | 0.0437 | -0.0039 | 0.019 | -0.0507 | -0.0216 | -0.0154 | -0.0532 | -0.0574 | -0.0281 | 0.042 | -0.0391 | 0.011 | -0.062 | 0.0505 | -0.0019 | -0.0193 | -0.042 |
| CN(CCO)CC[C@H](CSc1ccccc1)Nc1ccc(S(=O)(=O)NC(=O)c2ccc(N3CCC([C@@H](O)c4ccccc4-c4ccc(Cl)cc4)CC3)cc2)cc1S(=O)(=O)C(F)(F)F [AZD4320] + C[C@@H]1COCCN1C2=NC(=NC(=C2)C3(CC3)[S@](=N)(=O)C)C4=C5C=CNC5=NC=C4 [AZD6738] (first compound max 1 µM, 7x7, partner max 10 µM) | 0.028 | -0.0356 | -0.0606 | -0.0723 | -0.0435 | -0.0446 | -0.0171 | -0.0372 | -0.039 | -0.0275 | -0.0613 | 0.0161 | -0.0355 | -0.0331 | -0.0409 | -0.0284 | -0.0222 | -0.0319 | -0.0984 | -0.0649 |
| CN(CCO)CC[C@H](CSc1ccccc1)Nc1ccc(S(=O)(=O)NC(=O)c2ccc(N3CCC([C@@H](O)c4ccccc4-c4ccc(Cl)cc4)CC3)cc2)cc1S(=O)(=O)C(F)(F)F [AZD4320] + Cn1cnc2c(F)c(Nc3ccc(Br)cc3Cl)c(C(=O)NOCCO)cc21 [Selumetinib] (first compound max 1 µM, 7x7, partner max 3 µM) | 0.0025 | -0.0462 | 0.0271 | 0.0417 | 0.0336 | -0.0245 | 0.0231 | 0.0033 | 0.0272 | 0.0374 | -0.006 | -0.0301 | 0.0195 | -0.006 | -0.0351 | 0.0103 | 0.0974 | 0.0265 | -0.0362 | -0.0306 |
| CC(=O)c1c(C)c2cnc(Nc3ccc(N4CCNCC4)cn3)nc2n(C2CCCC2)c1=O [Palbociclib] + Cn1cnc2c(F)c(Nc3ccc(Br)cc3Cl)c(C(=O)NOCCO)cc21 [Selumetinib] (first compound max 10 µM, 7x7, partner max 10 µM) | -0.0115 | -0.0478 | -0.057 | 0.0141 | -0.0125 | -0.0071 | -0.0362 | 0.0461 | -0.0401 | -0.0844 | 0.0109 | -0.0555 | 0.0093 | -0.134 | -0.0772 | -0.0508 | -0.0412 | 0.0219 | -0.0419 | -0.0022 |
| CCN(CCO)CCCOc1ccc2c(Nc3cc(CC(=O)Nc4cccc(F)c4)[nH]n3)ncnc2c1 [AZD2811] + C=CCn1c(=O)c2cnc(Nc3ccc(N4CCN(C)CC4)cc3)nc2n1-c1cccc(C(C)(C)O)n1 [AZD1775] (first compound max 1 µM, partner max 1 µM) | -0.0057 | 0.0302 | -0.0443 | -0.0179 | -0.032 | -0.0671 | 0.0252 | -0.0236 | -0.0254 | -0.011 | -0.0426 | 0.0205 | -0.0731 | 0.0395 | 0.0009 | -0.0541 | 0.0213 | -0.0086 | -0.068 | -0.0538 |
| Cc1c2c(nn1C)CSCc1cc(n(C)n1)CSc1cc(c3ccccc3c1)OCCCc1c(C(=O)O)n(C)c3c-2c(Cl)ccc13 [AZD5991] + C[C@@H](Nc1cc(F)cc(F)c1)c1cc(C(=O)N(C)C)cc2c(=O)cc(N3CCOCC3)oc12 [AZD8186] (first compound max 1 µM, 7x7, partner max 3 µM) | 0.0492 | -0.0003 | -0.0268 | -0.0639 | -0.004 | -0.0601 | -0.0351 | 0.0059 | -0.0069 | -0.0411 | -0.0439 | 0.0092 | 0.0005 | -0.0107 | -0.0758 | -0.0245 | 0.0164 | -0.0036 | -0.0501 | -0.0421 |
| Cc1c2c(nn1C)CSCc1cc(n(C)n1)CSc1cc(c3ccccc3c1)OCCCc1c(C(=O)O)n(C)c3c-2c(Cl)ccc13 [AZD5991] + CN(C)CCCOc1ccc(-c2ccc3ncc4c(c3c2)n(C2CCOCC2)c(=O)n4C)cn1 [AZD0156] (first compound max 1 µM, 7x7, partner max 1 µM) | 0.0186 | -0.0007 | 0.0094 | -0.028 | -0.0036 | -0.0614 | 0.0332 | 0.0091 | 0.0081 | -0.019 | -0.0236 | -0.0544 | -0.0005 | 0.041 | -0.0492 | -0.0024 | 0.0408 |  | 0.0106 | -0.0289 |
| Cn1cnc2c(F)c(Nc3ccc(Br)cc3Cl)c(C(=O)NOCCO)cc21 [Selumetinib] + CCN(CCO)CCCOc1ccc2c(Nc3cc(CC(=O)Nc4cccc(F)c4)[nH]n3)ncnc2c1 [AZD2811] (first compound max 10 µM, 7x7, partner max 1 µM) | -0.0273 | 0.0328 | 0.025 | 0.0033 | -0.0129 | -0.056 | -0.0267 | -0.0491 | -0.0203 | 0.0389 | 0.0062 |  | 0.0139 | -0.0043 | -0.0341 | -0.0745 | 0.0121 | 0.0522 | -0.0798 | -0.0428 |
| COc1nnc2ccc(N3CCC(c4ccc(OCCN5CCN(C)C(=O)[C@H]5C)cc4)CC3)nn12 [AZD5153] + C=CCn1c(=O)c2cnc(Nc3ccc(N4CCN(C)CC4)cc3)nc2n1-c1cccc(C(C)(C)O)n1 [AZD1775] (first compound max 1 µM, partner max 1 µM) | -0.0199 | -0.068 | 0.0045 | -0.0516 | -0.0366 | -0.0303 | -0.125 | -0.073 | 0.007 | -0.0245 | -0.0474 |  | -0.0349 | -0.112 | -0.0178 | -0.0562 | -0.0631 | -0.0899 | -0.0428 | -0.0633 |
| COc1nnc2ccc(N3CCC(c4ccc(OCCN5CCN(C)C(=O)[C@H]5C)cc4)CC3)nn12 [AZD5153] + CC1(C)CCC(CN2CCN(c3ccc(C(=O)NS(=O)(=O)c4ccc(NCC5CCOCC5)c([N+](=O)[O-])c4)c(Oc4cnc5[nH]ccc5c4)c3)CC2)=C(c2ccc(Cl)cc2)C1 [Venetoclax] (first compound max 1 µM, 7x7, partner max 1 µM) | -0.0291 | -0.0766 | -0.0676 | -0.0898 | -0.0374 | -0.0445 | -0.0645 | -0.0109 | -0.055 | -0.0605 | 0.0391 |  | -0.0378 | -0.135 | -0.0356 | 0.0174 | 0.0035 | -0.0617 | -0.0371 | -0.0522 |
